Reference: patent EP4585599A1, “NITROGEN-CONTAINING FUSED RING COMPOUND, INTERMEDIATE THEREOF, PREPARATION METHOD THEREFOR AND USE THEREOF” (Hangzhou Synrx Therapeutics Biomedical Technology Co., Ltd., priority 2022, dated 2024)
pIC50: −log10 of the molar value. Read-outs that look alike come from different tables or passages of the source.

Key:
cells = conditions: Homo sapiens, DLD-1, 240 h
[1] = target: T1, helicase domain of the Pol θ protein (Homo sapiens, UniProt O75417); experiment: Biochemical Activity Assay (ADP Glo Assay) of Pol θ inhibitor, ATPase activity; conditions: for pIC50: ssDNA substrate, read-out: Biochemical assay IC50
T1 construct: The helicase domain of the Pol θ protein was purified from insect protein expression system; made in house; host or cells: insect protein expression system
T1 sequence (O75417 102-554 limits assumed): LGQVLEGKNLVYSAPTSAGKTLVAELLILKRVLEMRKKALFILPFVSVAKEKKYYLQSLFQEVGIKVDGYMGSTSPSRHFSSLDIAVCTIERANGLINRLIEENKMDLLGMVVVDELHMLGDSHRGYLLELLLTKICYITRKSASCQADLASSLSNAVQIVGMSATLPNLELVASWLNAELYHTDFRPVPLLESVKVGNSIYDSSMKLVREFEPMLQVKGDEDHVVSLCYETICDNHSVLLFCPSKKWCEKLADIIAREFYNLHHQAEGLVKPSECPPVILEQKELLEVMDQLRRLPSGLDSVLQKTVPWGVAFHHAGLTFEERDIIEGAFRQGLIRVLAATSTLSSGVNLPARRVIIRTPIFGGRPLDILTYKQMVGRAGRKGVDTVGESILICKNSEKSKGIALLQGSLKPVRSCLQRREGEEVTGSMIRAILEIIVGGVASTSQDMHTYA

[2] = read-out: Cell viability assay IC50 (nM), CTG assay, CellTiter Glo, read on Day 10, cell line not given
[3] = read-out: Cell viability assay IC50 (nM), CTG on Day 10, cell line not given (method: DLD1 and DLD1^-/- cells)
[4] = ADP-Glo assay, ATPase activity of Pol θ helicase domain
[5] = ADP-Glo, 60 min at room temperature

| SMILES | pIC50 [1, 4] | pIC50 [1, 5] | IC50 (cells; [2]) | IC50 (cells; [3]) | IC50 (cells; read-out: Cell viability assay IC50 (nM)) | IC50 ([1]; Biochemical assay IC50 (nM)) |
| --- | --- | --- | --- | --- | --- | --- |
| [2H]C1(O)CC=C(c2cc3sc(NC(=O)c4cnc(C)cc4-c4cc(Cl)ncc4OC)nc3cn2)CC1 (centres unmarked) [Example 111, 2'-chloro-N-(6-(4-hydroxycyclohex-1-en-1-yl-4-d)thiazolo[4,5-c]pyridin-2-yl)-5'-methox y-6-methyl-[4,4'-bipyridine]-3-carboxamide] | 8.42 | > 7.30 | 13.1 nM | < 100 nM | – | – |
| COc1cnc(Cl)cc1-c1cc(C)ncc1C(=O)Nc1nc2cnc(C3=CC[C@@H](O)CC3)cc2s1 [Example 115, (S) -2'-chloro-N-(6-(4-hydroxycyclohex-1-en-1-yl)thiazolo[4,5-c]pyridin-2-yl)-5'-methoxy-6-methyl-[4,4'-bipyridine]-3-c arboxamide] | 8.49 | > 7.30 | 2.61 nM | < 100 nM | – | – |
| COc1cnc(Cl)cc1-c1cc(C)ncc1C(=O)Nc1nc2ccc(N3CCC(O)C(C)(C)C3)nc2s1 (centres unmarked) [Example 116, 2'-chloro-N-(5-(4-hydroxy-3,3-dimethylpiperidin-1-yl)thiazol[5,4-b]pyridin-2-yl)-5'-me thoxy-6-methyl-[4,4'-bipyridine]-3-carboxamide] | – | – | – | – | 36.9 nM | 10.3 nM |
| COc1cnc(Cl)cc1-c1cc(C)ncc1C(=O)Nc1nc2ncc(N(C)CCC(C)O)cc2s1 (centres unmarked) [Example 117] | 8.14 | – | 799 nM | – | – | – |
| COc1cnc(Cl)cc1-c1cc2cncn2cc1C(=O)Nc1nc2cnc(N3CCC(O)CC3)cc2s1 [Example 121] | 7.28 | – | 2510 nM | – | – | – |
| COc1cnc(Cl)cc1-c1cc(C(F)(F)F)ncc1C(=O)Nc1nc2ccc(N3CCC(O)CC3)nc2s1 [Example 122] | 6.84 | – | 2710 nM | – | – | – |
| COc1cnc(Cl)cc1-c1cc(C)ncc1C(=O)Nc1nc2ccc(N3CCc4ccccc43)nc2s1 [Example 131] | 6.83 | – | 736 nM | – | – | – |
| COc1cnc(Cl)cc1-c1cc(C)ncc1C(=O)Nc1nc2ccc(N3CCc4ccccc4C3)nc2s1 [Example 132] | 6.79 | – | 158 nM | – | – | – |

Continued, in another order:

| pIC50 [1, 4] | pIC50 [1, 5] | SMILES | IC50 (cells; [2]) | IC50 (cells; [3]) | IC50 (cells; read-out: Cell viability assay IC50 (nM)) | IC50 ([1]; Biochemical assay IC50 (nM)) |
| --- | --- | --- | --- | --- | --- | --- |
| 8.40 | – | COc1cnc(Cl)cc1-c1cc(C)ncc1C(=O)Nc1nc2ncc(N3CCC(O)C(C)(C)C3)cc2s1 (centres unmarked) [Example 118] | 23 nM | – | – | – |
| 8.26 | – | COc1cnc(Cl)cc1-c1cc(C)ncc1C(=O)Nc1nc2cc(F)c(N3CCC(O)CC3)cc2s1 [Example 119] | 10.7 nM | – | – | – |
| 8.23 | – | COc1cnc(Cl)cc1-c1cc(C)ncc1C(=O)Nc1nc2c(C#N)cc(N3CCC(O)CC3)cc2s1 [Example 120] | 14.2 nM | – | – | – |
| 7.98 | – | COc1cnc(Cl)cc1-c1cc(C)ncc1C(=O)Nc1nc2c(F)nc(N3CCC(O)CC3)cc2s1 [Example 123] | 24.2 nM | – | – | – |
| 6.79 | – | COc1cnc(Cl)cc1-c1c(C(=O)Nc2nc3ccc(N4CCC(O)CC4)nc3s2)cnc(C)c1F [Example 124] | 584 nM | – | – | – |
| 8.00 | – | COc1cnc(Cl)c(F)c1-c1cc(C)ncc1C(=O)Nc1nc2cc(F)c(N3CCC(O)CC3)nc2s1 [Example 125] | 3.98 nM | – | – | – |
| 8.13 | – | COc1cnc(Cl)cc1-c1cc(C)ncc1C(=O)Nc1nc2cc(F)c(N3CCC(O)CC3)nc2s1 [Example 126] | 9.26 nM | – | – | – |
| 8.45 | – | COc1cnc(Cl)c(F)c1-c1cc(C)ncc1C(=O)Nc1nc2ncc(N3CCC(O)CC3)cc2s1 [Example 127] | 15.8 nM | – | – | – |
| 8.01 | – | COc1cnc(Cl)cc1-c1cc(C)ncc1C(=O)Nc1nc2ccc(N3CCC(CO)CC3)nc2s1 [Example 128] | 39.8 nM | – | – | – |
| 8.09 | – | COc1cnc(Cl)c(F)c1-c1cc(C)ncc1C(=O)Nc1nc2ccc(N3CCC(CO)CC3)nc2s1 [Example 129] | 9.68 nM | – | – | – |
| 8.16 | – | Cc1cc(-c2cc(Cl)ncc2OC(F)F)c(C(=O)Nc2nc3ccc(N4CCC(O)CC4)nc3s2)cn1 [Example 130] | 11 nM | – | – | – |
| 8.16 | – | COc1cnc(Cl)cc1-c1cc(C)ncc1C(=O)Nc1nc2ncc(N3CC4(CC(O)C4)C3)nc2s1 [Example 133] | 26.1 nM | – | – | – |
